The values below are quoted from earlier work in patent publication US9873698B2, “Spirocycles as inhibitors of 11-beta hydroxyl steroid dehydrogenase type 1” (Incyte Corporation, priority 2007, dated 2018).

SMILES strings stand for the structures.

In the data set the target is T1, 11βHSD1 (Homo sapiens, UniProt P28845).
T1 construct: host or cells: healthy volunteers, eye (in vivo)
Conditions: healthy volunteers, after seven days of carbenoxolone treatment.

T1 sequence (P28845 whole entry): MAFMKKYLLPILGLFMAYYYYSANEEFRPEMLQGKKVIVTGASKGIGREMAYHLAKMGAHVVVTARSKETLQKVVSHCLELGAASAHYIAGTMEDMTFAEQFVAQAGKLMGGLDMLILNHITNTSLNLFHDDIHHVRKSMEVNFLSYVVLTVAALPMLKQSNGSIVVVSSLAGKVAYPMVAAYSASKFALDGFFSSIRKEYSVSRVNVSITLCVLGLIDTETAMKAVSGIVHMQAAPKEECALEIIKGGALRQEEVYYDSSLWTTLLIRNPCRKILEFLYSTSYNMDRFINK

Take `CC1(C)[C@@H](OC(=O)CCC(=O)O)CC[C@]2(C)[C@H]3C(=O)C=C4[C@@H]5C[C@@](C)(C(=O)O)CC[C@]5(C)CC[C@@]4(C)[C@]3(C)CC[C@@H]12` [carbenoxolone]: the “IOP reduced by” value is reported as 18%.
